Assay results from US9062051B2, “Compounds and pharmaceutical compositions thereof for the treatment of proliferative disorders” (GALAPAGOS NV, priority 2014, dated 2015).

What was measured:
[1] = molecular target: T1, EphB4 (UniProt Ref: Q541P7) (Homo sapiens, UniProt P54760); assay: EphB4 assay (Reaction Biology HotSpot radioactive kinase assay); format: biochemical; conditions: ATP 10 μM; read-out: EphB4 potency IC50
T1 construct: purchased Reaction Biology
T1 sequence (P54760 16-987): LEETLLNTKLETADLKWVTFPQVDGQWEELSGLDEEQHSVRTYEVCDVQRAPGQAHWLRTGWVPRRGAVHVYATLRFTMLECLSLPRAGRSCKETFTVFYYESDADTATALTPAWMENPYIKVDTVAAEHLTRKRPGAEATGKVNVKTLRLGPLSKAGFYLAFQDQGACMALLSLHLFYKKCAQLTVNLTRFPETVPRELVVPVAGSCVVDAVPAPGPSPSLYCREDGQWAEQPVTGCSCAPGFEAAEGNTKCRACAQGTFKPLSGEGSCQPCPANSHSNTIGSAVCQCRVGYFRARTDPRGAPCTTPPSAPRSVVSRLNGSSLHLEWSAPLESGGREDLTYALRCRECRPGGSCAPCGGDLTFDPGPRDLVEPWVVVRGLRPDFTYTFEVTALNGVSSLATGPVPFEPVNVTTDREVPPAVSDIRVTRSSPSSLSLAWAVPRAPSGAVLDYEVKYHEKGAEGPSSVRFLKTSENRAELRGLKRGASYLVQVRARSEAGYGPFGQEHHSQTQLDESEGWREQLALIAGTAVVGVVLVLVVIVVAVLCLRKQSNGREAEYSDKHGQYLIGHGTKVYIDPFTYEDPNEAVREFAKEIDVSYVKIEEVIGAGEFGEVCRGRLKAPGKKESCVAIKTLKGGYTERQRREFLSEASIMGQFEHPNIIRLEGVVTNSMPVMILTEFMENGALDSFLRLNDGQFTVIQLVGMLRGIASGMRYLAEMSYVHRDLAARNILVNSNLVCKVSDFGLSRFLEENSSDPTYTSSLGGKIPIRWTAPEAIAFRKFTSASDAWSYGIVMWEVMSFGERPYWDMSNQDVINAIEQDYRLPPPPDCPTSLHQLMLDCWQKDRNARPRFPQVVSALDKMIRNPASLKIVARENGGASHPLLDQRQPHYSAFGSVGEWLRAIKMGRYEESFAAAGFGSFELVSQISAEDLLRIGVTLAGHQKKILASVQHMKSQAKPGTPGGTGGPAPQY
Description: (§1) Inhibition of EphB4 (UniProt Ref: Q541P7) by a test compound is determined by a commercially available Reaction Biology proprietary nanoliter radioactive HotSpot^SM assay (Reaction Biology, One great valley parkway, Suite 2, Malvern Pa., 19355, USA). The principle of the assay consists of the measurement of incorporated ^33P into poly[Glu:Tyr] (4:1) (0.2 mg/mL) when the substrate is phosphorylated by the enzyme using [^33P]-γ-ATP and ATP (10 μM).
To determine the IC50, a serial dilution of compound is tested starting from 10 or 3 μM (highest dilution) with a 1/3 dilution.

[2] = molecular target: T2, Recombinant EphB2 (Homo sapiens, UniProt P29323); assay: EphB2 assay (33P incorporation into poly GT, filter plate); format: biochemical; conditions: read-out: EphB2 potency IC50
T2 construct: purchased Carna 08-129
T2 sequence (P29323 19-986 isoform P29323-2 limits assumed): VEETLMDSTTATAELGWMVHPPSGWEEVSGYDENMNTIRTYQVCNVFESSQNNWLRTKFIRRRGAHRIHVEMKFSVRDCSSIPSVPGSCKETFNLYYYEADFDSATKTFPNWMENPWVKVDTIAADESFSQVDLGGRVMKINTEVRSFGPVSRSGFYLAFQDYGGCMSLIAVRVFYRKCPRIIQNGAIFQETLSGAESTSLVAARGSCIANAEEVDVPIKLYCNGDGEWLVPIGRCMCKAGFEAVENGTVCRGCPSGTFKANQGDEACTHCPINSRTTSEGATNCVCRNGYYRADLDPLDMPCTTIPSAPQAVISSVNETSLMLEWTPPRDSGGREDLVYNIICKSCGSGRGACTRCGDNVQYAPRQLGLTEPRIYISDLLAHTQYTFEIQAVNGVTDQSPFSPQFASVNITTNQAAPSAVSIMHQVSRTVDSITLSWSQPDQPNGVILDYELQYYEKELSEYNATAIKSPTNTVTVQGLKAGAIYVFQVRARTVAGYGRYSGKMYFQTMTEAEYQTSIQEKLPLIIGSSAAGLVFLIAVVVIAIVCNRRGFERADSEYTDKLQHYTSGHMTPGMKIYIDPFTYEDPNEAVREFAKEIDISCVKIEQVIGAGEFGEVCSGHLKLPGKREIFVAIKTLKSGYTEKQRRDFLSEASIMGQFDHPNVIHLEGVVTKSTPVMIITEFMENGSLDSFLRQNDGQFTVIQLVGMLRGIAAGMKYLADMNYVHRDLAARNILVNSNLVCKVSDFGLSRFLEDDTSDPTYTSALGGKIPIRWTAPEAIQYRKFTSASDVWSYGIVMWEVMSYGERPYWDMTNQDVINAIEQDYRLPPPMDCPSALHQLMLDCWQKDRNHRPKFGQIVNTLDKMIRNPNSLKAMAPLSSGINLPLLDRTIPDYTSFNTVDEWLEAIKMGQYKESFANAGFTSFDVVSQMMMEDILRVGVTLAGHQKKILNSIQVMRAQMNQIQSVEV
Description: The principle of the assay consists of the measurement of incorporated ^33P into the substrate poly GT when phosphorylated by the enzyme EphB2 using [^33P]-γ-ATP and ATP. Unincorporated ^33P is removed by loading the samples on a filter plate (using a harvester, Perkin Elmer) and 6 subsequent washing steps. ^33P incorporated in polyGT is measured on a Topcount after addition of microscint to the filter plates (Perkin Elmer).
Recombinant EphB2 (Carna Cat#08-129, 0.6 ng per well) was incubated with 0.05 mg/mL Poly(Glu,Tyr)sodium salt (4:1), MW 20 000-50 000 (Sigma catalog number P0275) in kinase reaction buffer (10 mM MOPS pH 7.2, 5 mM DTT, 0.01% Triton-X100, 5 mM MnCl2, 0.5 mM Na3VO4, 5 mM beta-glycerolphosphate), 0.5 μM non-radioactive ATP, 0.25 μCi/25 μl ^33P-gamma-ATP (Perkin Elmer, catalog number NEG602K) final concentrations with or without 5 μL containing test compound or vehicle (DMSO, 1% final concentration), in a total volume of 25 μL, in a polypropylene 96-well plate (Greiner, V-bottom). After 45 min at 30° C., reactions were stopped by adding of 25 μL/well of 150 mM phosphoric acid. The experiment was then conducted as described for EphA7. The ability of a test compound to inhibit the kinase activity was determined using counts per minutes (cpm) measured by the Topcount as:
Cpm (cpd): cpm determined for sample with test compound present
Cpm (control): cpm determined for sample with positive control inhibitor (10 μM staurosporine)
Cpm (vehicle): cpm determined in the presence of vehicle (1% DMSO)
Dose dilution series were prepared for the compounds enabling the testing of dose-response effects in the EphB2 assay and the calculation of the IC50 for each compound. Each compound was routinely tested at concentration of 20 μM followed by a 1/5 serial dilution, 10 points in a final concentration of 1% DMSO. When potency of compound series increased, more dilutions may be prepared and/or the top concentration may be lowered (e.g. 5 μM, 1 μM).

[3] = molecular target: T3, EphA2 (UniProt Ref: P29317) (Homo sapiens, UniProt P29317); assay: EphA2 assay (Reaction Biology HotSpot radioactive kinase assay); format: biochemical; conditions: ATP 10 μM; read-out: EphA2 potency IC50
T3 construct: purchased Reaction Biology
Description: as §1, with “EphA2” for “EphB4”, “P29317)” for “Q541P7)”
To determine the IC50, a serial dilution of compound is tested starting from 10, or 3 μM (highest dilution) with a 1/3 dilution.

[4] = Pharmacokinetics in rats (exposure, AUC); format: in vivo, male Sprague Dawley rats; conditions: male, Sprague Dawley, rat, plasma, po, 5 mg/kg
Description: This study is performed with 6 naïve male Sprague Dawley rats (180-200 g, 6-8 weeks old). Rats are obtained from Janvier, Le Genest St Isle, France.
A controlled environment is maintained in the room with optimal conditions of approximately 15 air changes per hour, a temperature of 22±2 C, a relative humidity of 30-70% and a 12 hour light/dark cycle
Pelleted diet for rodents (UAR A04C-10) is used and is provided ad libitum. Before p.o. dosing, the animals are deprived of food for at least 12 hours before compound administration and 4 hours after administration. All animals had free access to tap water.
Two days before the dosing day, the implantation of a catheter in the jugular vein is done under gaseous anaesthesia with isoflurane.
Rats are dosed intravenously with test compound via a bolus in the tail vein with a dose level of 1 mg/kg. […]
The i.v. bolus and the oral administration are given a dose volume of 5 mL/kg.
From all animals approximately 200 μL blood samples are collected via the catheter and placed into tubes containing Li-heparin as anticoagulant. Blood samples are collected at the various time points (i.v.: 0.05, 0.25, 0.5, 1, 3, 5, 8 and 24 hours after dosing; p.o.: 0.25, 0.5, 1, 3, 5, 8 and 24 hours after dosing).
Blood is kept on ice. Within 1 hour after sampling, blood is centrifuged at 5,000 rpm for 10 min at 4° C. Immediately after centrifugation, the resulting plasma samples are collected into polypropylene tubes and are kept frozen at −20° C. pending bioanalysis.
Plasma samples are assayed by LC-MS/MS. Plasma proteins are precipitated with an excess of methanol containing the internal standard and the corresponding supernatant is injected on a C18 column. Analytes are eluted out the HPLC system by increasing the percentage of the organic mobile phase. An API4000 mass spectrometer (AB Sciex™) is used for the detection and quantification.
Pharmacokinetic parameters are calculated by non-compartmental analysis using WinNonlin® software (Pharsight, version 5.2).

[5] = system: MDA-MB-231 cells; assay: Mouse xenograft model of human triple negative breast cancer (MDA-MB-231), tumorous growth inhibition; format: in vivo, Female BALB/c Mice; conditions: day 26, 20 mg/kg, ip, 3x/ week
Description: Animals (Female BALB/c Mice, Harlan, 51930, 18-20 g) are provided with filtered tap water and standard chow ad libitum and maintained at 22±2° C. in 55±10% humidity on a 12 h light/dark cycle.
Paclitaxel used as a positive control is formulated by 1/3 dilution of commercial solution (Fresenius kabi, 871WF014/4) in saline.
The test compounds for po administration are formulated in 0.5% methylcellulose (VWR, ref AX021233).
MDA-MB-231 cell line is obtained from the ATCC collection (ref HTB-26). The cells are then cultured in RPMI 1640 medium supplemented with […] (Gibco 15140-148) and 1% (v/v) L-Glutamine 200 mM (Gibco 25030-024) at 37° C. in a 5% CO2 incubator.
5 million MDA-MB-231 cells/mice in 0.1 mL of 50% Matrigel (BD biosciences, LDEV free 256235)+50% D-PBS 1× (Gibco 14190-086) are injected by subcutaneous route on the upper back of 120 mice. Prior to implantation, mice are anesthetized by intra-peritoneal injection with a 0.1 mL/10 g dose of anaesthetic solution (18 mL NaCl, 0.9%+0.5 mL xylazine, +1.5 mL ketamine. […]
Body weight, and tumor growth is recorded twice a week during the course of treatment.
After 26 days the treatment is stopped, in each group half of the mice are euthanized for tissue collection, and the other half is kept for a further 7 days, during which period body weight and tumour sized are measured.
In sacrificed mice, blood and tumours are collected, analysed, and the effect of the test compounds is compared with controls (vehicle and paclitaxel).
The values were obtained using the following calculations
Relative Tumor Volume (RTV):
Tumor Growth Inhibition (TGI) TGI=1−T/C

T3 sequence (P29317 24-976): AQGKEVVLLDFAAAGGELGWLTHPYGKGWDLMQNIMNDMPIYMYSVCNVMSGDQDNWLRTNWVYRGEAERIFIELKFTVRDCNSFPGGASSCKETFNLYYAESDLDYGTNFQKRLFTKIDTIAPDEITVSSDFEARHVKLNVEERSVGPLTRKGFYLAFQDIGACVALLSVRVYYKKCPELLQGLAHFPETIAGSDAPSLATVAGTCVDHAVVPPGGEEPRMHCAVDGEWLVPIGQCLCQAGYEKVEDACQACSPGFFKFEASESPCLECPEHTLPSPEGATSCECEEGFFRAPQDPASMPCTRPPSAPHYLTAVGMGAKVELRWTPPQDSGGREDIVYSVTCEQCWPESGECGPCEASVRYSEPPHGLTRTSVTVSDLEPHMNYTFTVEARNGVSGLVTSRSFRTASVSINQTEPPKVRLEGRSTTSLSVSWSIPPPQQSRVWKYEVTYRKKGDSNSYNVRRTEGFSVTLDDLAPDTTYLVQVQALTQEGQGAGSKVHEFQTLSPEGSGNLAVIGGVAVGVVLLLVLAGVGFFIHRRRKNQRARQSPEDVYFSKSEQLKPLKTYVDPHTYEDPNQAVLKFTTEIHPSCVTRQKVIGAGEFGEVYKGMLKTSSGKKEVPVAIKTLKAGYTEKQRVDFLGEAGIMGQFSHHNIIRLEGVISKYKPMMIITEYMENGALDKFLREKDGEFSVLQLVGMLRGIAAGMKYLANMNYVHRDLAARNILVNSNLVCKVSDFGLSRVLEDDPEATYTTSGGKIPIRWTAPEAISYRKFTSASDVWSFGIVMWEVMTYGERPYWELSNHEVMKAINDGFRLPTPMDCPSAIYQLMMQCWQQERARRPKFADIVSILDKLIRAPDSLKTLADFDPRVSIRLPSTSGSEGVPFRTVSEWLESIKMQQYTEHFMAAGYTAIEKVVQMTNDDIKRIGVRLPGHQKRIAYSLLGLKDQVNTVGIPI

Cc1cc(C)cc(C(=O)Nc2ccc(C)c(-c3ccc4c(C(O)CN5CCOCC5)n[nH]c4n3)c2)c1 (stereo not drawn) [Compound 7, N-{3-[3-(1-Hydroxy-2-morpholin-4-yl-ethyl)-1H-pyrazolo[3,4-b]pyridin-6-yl]-4-methyl-phenyl}-3,5-dimethyl-benzamide] gave an IC50 [1] of 0.01 to 25 nM, an IC50 [2] of 0.01 to 25 nM and an IC50 [3] of 25 to 50 nM.

CCc1n[nH]c2nc(-c3cc(NC(=O)c4cc(OC)cc(OC)c4)ccc3C)ccc12 [Compound 8, N-[3-(3-Ethyl-1H-pyrazolo[3,4-b]pyridin-6-yl)-4-methyl-phenyl]-3,5-dimethoxy-benzamide] showed an AUC [4] of 2000 ng·h/mL.

COc1cc(OC)cc(C(=O)Nc2ccc(C)c(-c3ccc4c(CO)n[nH]c4n3)c2)c1 [Compound 10, N-[3-(3-Hydroxymethyl-1H-pyrazolo[3,4-b]pyridin-6-yl)-4-methyl-phenyl]-3,5-dimethoxy-benzamide] gave an IC50 [3] of 0.01 to 25 nM and an AUC [4] of 274 ng·h/mL.

With CC(=O)O[C@H]1C(=O)[C@@]2(C)[C@H]([C@H](OC(=O)c3ccccc3)[C@]3(O)C[C@H](OC(=O)[C@H](O)[C@@H](NC(=O)c4ccccc4)c4ccccc4)C(C)=C1C3(C)C)[C@]1(OC(C)=O)CO[C@@H]1C[C@@H]2O [Paclitaxel, paclitaxel] the “RTV (Relative Tumor Volume)” value [5] was 2.06, the “T/C (Tumour Vs Control)” value [5] was 24.31% and the “TGI (Tumor Growth Inhibition)” value [5] was 75.69%.
